Experimental data taken from the OPERA property sets (Mansouri et al. 2018).

Details: not given

Compound | boiling point | log10 vapour pressure (mmHg) | melting point | ready biodegradability | log10 Koc (L/kg) | log10 Henry constant (atm·m³/mol) | log10 Koa | log10 biodegradation half-life (days)
CC(=O)CC(C)(C)N | 180 °C | -0.699 |  |  |  |  |  | 
COC(=O)c1cccc(OC)c1 | 248 °C |  |  |  |  |  |  | 
c1csc(-c2ccc(-c3cccs3)s2)c1 |  |  | 93.5 °C |  |  |  |  | 
C=CC1CC=CCC1 (configuration not stated) | 128 °C | 1.2 | -109 °C | not readily biodegradable |  |  |  | 
CC(C)C1=CC2=CC[C@@H]3[C@](C)(CCC[C@@]3(C)C(=O)O)[C@H]2CC1 |  |  | 174 °C | not readily biodegradable |  |  |  | 
C/C=C1/C[C@@H](C)[C@](O)(CO)C(=O)OCC2=CCN3CC[C@@H](OC1=O)[C@@H]23 |  |  | 212 °C |  |  |  |  | 
CC(=O)Nc1nc(=O)c2ncn(COCCOC(C)=O)c2[nH]1 |  |  | 204 °C |  |  |  |  | 
COc1ccc(CO)cc1O |  |  | 136 °C |  |  |  |  | 
Oc1ccncc1 |  |  | 150 °C | readily biodegradable |  |  |  | 
Cc1cccc(Oc2cccc(C)c2)c1 | 284 °C |  |  |  |  |  |  | 
CCSC(=O)COc1ccc(Cl)cc1C |  | -3.8 | 41.5 °C |  |  |  |  | 
O=S(Cc1ccccc1)Cc1ccccc1 |  |  | 134 °C |  |  |  |  | 
O=C1NCCCN1 |  |  | 265 °C |  |  |  |  | 
CCC(=O)c1cccc(OC)c1 | 259 °C |  |  |  |  |  |  | 
CCCCCCCCCCCC[N+](CCO)(CCO)Cc1ccccc1.[Cl-] |  |  | 108 °C |  |  |  |  | 
CN1[C@@H]2CCC[C@H]1CC2 | 166 °C |  |  |  |  |  |  | 
CC(Br)(CBr)COc1c(Br)cc(Br)cc1Br (configuration not stated) |  |  |  | not readily biodegradable |  |  |  | 
Cc1ccc(Br)cc1N |  |  | 33 °C |  |  |  |  | 
CC(C)Sc1ccccc1 | 208 °C |  |  |  |  |  |  | 
CCCCC(CCCC)c1ccncc1 |  |  |  | readily biodegradable |  |  |  | 
O=C(O)Cc1cccc([N+](=O)[O-])c1 |  |  | 118 °C |  |  |  |  | 
COCc1ccccc1 | 170 °C | 0.22 | -52.6 °C |  |  |  |  | 
CCCCC1(CC)C(=O)NC(=O)NC1=O |  |  | 128 °C |  |  |  |  | 
C=C(C)[C@H]1Cc2c(ccc3c2O[C@@H]2COc4cc(OC)c(OC)cc4[C@@H]2C3=O)O1 |  |  | 176 °C |  | 4 |  |  | 
O=S(=O)(O)c1ccc2cc(O)ccc2c1 |  |  | 125 °C |  |  |  |  | 
CCOP(=O)(OCC)ON1C(=O)c2cccc3cccc(c23)C1=O |  |  | 177 °C |  |  |  |  | 

Compound | boiling point | log10 vapour pressure (mmHg) | melting point | ready biodegradability | log10 Koc (L/kg) | log10 Henry constant (atm·m³/mol) | log10 Koa | log10 biodegradation half-life (days)
C=CC(=O)Cl | 75.5 °C |  |  |  |  |  |  | 
CC(=O)C(N=Nc1ccc(-c2ccc(N=NC(C(C)=O)C(=O)Nc3ccccc3)c(Cl)c2)cc1Cl)C(=O)Nc1ccccc1 (configuration not stated) |  |  |  | not readily biodegradable |  |  |  | 
C=CC(C)=CC | 77 °C |  |  |  |  |  |  | 
Cc1cc(C)cc(C(=O)N(NC(=O)c2ccccc2)C(C)(C)C)c1 |  |  | 206 °C |  |  |  |  | 
CCC(C)C1(CC)C(=O)NC(=O)NC1=O (configuration not stated) |  |  | 166 °C |  |  |  |  | 
CCCOP(=O)(OCCC)OCCC | 252 °C |  |  |  |  | -6.17 |  | 
COS(=O)(=O)OC |  | -0.169 | -27 °C |  |  |  |  | 
C=COCCO | 142 °C |  |  |  |  |  |  | 
CN(C)c1ccc(C(O)c2ccc(N(C)C)cc2)cc1 |  |  | 101 °C |  |  |  |  | 
c1ccc(-c2ccccc2)cc1 | 256 °C | -2.05 |  | readily biodegradable | 3.27 | -3.51 | 6.15 | 1.49
CC(=O)N(c1onc(C)c1C)S(=O)(=O)c1ccc(N)cc1 |  |  | 194 °C |  |  |  |  | 
COc1ccc(C(=O)Cl)cc1 | 262 °C |  | 24.5 °C |  |  |  |  | 
COC(=O)CCC(=O)OC | 196 °C | -0.387 | 19 °C | readily biodegradable |  |  |  | 
CC(=O)N[C@@H](CCC(=O)O)C(=O)O |  |  | 199 °C |  |  |  |  | 
CCNc1cccc(C)c1 | 221 °C |  |  |  |  |  |  | 
OCC(F)(F)C(F)C(F)(F)F (configuration not stated) | 117 °C |  |  |  |  |  |  | 
O=C(O)c1ccc(C(=O)O)c2c(C(=O)O)ccc(C(=O)O)c12 |  |  | 320 °C |  |  |  |  | 
CC1=CC(=O)C(C2=C(O)C(=O)C(C)=CC2=O)=C(O)C1=O |  |  | 230 °C |  |  |  |  | 
Clc1ccc(-c2ccc(Cl)c(Cl)c2Cl)c(Cl)c1 |  |  |  |  |  | -4.18 |  | 
CCC=CBr | 99 °C | 1.89 |  |  |  |  |  | 
CCCCC(CC)COC(=O)c1ccccc1C(=O)OCC(CC)CCCC (configuration not stated) | 384 °C | -6.85 | -55 °C | not readily biodegradable | 4.94 |  |  | 
[Br-].[Br-].c1cc[n+]2c(c1)-c1cccc[n+]1CC2 |  |  | 337 °C |  |  |  |  | 
NCCCCCN | 179 °C |  | 9 °C |  |  |  |  | 
CCCC(=O)CC | 124 °C | 1.14 | -55.5 °C | not readily biodegradable |  |  |  | 
CCC(C)CCC(C)O (configuration not stated) | 170 °C |  | -61 °C |  |  |  |  | 
c1ccc2c3c([nH]c2c1)CCCC3 | 328 °C |  | 120 °C |  |  |  |  | 

Compound | boiling point | log10 vapour pressure (mmHg) | melting point | ready biodegradability | log10 Koc (L/kg) | log10 Henry constant (atm·m³/mol) | log10 Koa | log10 biodegradation half-life (days)
O=C(Br)CBr | 148 °C |  |  |  |  |  |  | 
CCn1ccc2ccccc21 | 252 °C |  | 105 °C |  |  |  |  | 
CCCC/C=C/CO | 178 °C |  |  |  |  |  |  | 
Cc1ccccc1C(N)=O |  |  | 147 °C |  |  |  |  | 
O=C(OC[C@H]1O[C@@H](Oc2ccccc2CO)[C@H](O)[C@@H](O)[C@@H]1O)c1ccccc1 |  |  | 180 °C |  |  |  |  | 
c1ccc(N2CCCCC2)cc1 | 258 °C |  | 4.7 °C |  |  |  |  | 
CCOC(=O)C(CC)(CC)C(C)=O | 216 °C |  |  |  |  |  |  | 
Cc1c(C)n(C)c2ccccc12 | 283 °C |  | 18 °C |  |  |  |  | 
O=[N+]([O-])c1cc(Cl)c(Cl)cc1Cl | 288 °C |  | 57.5 °C |  |  |  |  | 
C=C(CC)CCCC | 120 °C | 1.29 |  |  |  |  |  | 
O=C(OCCOCCOC(=O)c1ccccc1)c1ccccc1 |  |  | 33.5 °C |  |  |  |  | 
CCc1ccc[nH]1 | 164 °C |  |  |  |  |  |  | 
Cc1ncsc1C | 158 °C |  | 83.5 °C |  |  |  |  | 
C#CC=CC=C | 83.5 °C |  | -81 °C |  |  |  |  | 
Cc1c(C)c(C)c(C)c(C)c1C | 263 °C | -3.07 | 166 °C |  |  |  | 6.31 | 
CC(C)(OCc1ccc(-c2ccc(Cl)cc2)cc1)C(=O)O |  |  | 154 °C |  |  |  |  | 
Clc1cc(Cl)c(Cl)c(-c2cc(Cl)c(Cl)cc2Cl)c1 |  |  |  |  |  | -4.6 |  | 
O=C(O)CF | 168 °C |  | 35.2 °C |  |  | -7.91 |  | 
CCCCCC(C=O)=Cc1ccccc1 |  |  | 80 °C | readily biodegradable |  |  |  | 
CCCOC(=O)CCC(=O)OCCC | 251 °C |  | -5.9 °C |  |  |  |  | 
CC(C)=CCCl | 109 °C |  |  |  |  |  |  | 
CN(C)N=Nc1nc[nH]c1C(N)=O |  |  | 205 °C |  |  |  |  | 
O=S1OCC2C(CO1)C1(Cl)C(Cl)=C(Cl)C2(Cl)C1(Cl)Cl (configuration not stated) |  | -6.17 | 106 °C |  | 4.11 | -4.62 |  | 
CCCCCCCCC[C@H](O)CC |  |  | 25 °C |  |  |  |  | 
C1=CCOC1 | 66.5 °C | 2.2 |  |  |  |  |  | 
O=C(O)CCCCC(=O)O | 338 °C | -6.5 | 153 °C | readily biodegradable |  |  |  | 

Compound | boiling point | log10 vapour pressure (mmHg) | melting point | ready biodegradability | log10 Koc (L/kg) | log10 Henry constant (atm·m³/mol) | log10 Koa | log10 biodegradation half-life (days)
COP(=S)(OC)SCSc1ccc(Cl)cc1 |  |  |  |  | 4.67 |  |  | 
Cc1nc2ccccc2nc1C |  |  | 105 °C |  |  |  |  | 
Cc1ccccc1CO[C@H]1C[C@]2(C(C)C)CC[C@@]1(C)O2 (single isomer, unassigned) | 313 °C | -4.12 |  |  | 2.6 |  |  | 
C[Si]1(C)O[Si](C)(C)O[Si](C)(C)O[Si](C)(C)O[Si](C)(C)O[Si](C)(C)O[Si](C)(C)O[Si](C)(C)O[Si](C)(C)O1 |  | -4.75 |  |  |  |  |  | 
CCCCCCCCCCCCCCCCCCCCCl |  | -5.62 |  |  |  |  |  | 
Cc1ncc[nH]1 | 267 °C |  | 144 °C | not readily biodegradable |  |  |  | 
CC(Oc1ccccc1)C(=O)Cl (configuration not stated) | 147 °C |  |  |  |  |  |  | 
Cc1c(O)ccc(O)c1C |  |  | 224 °C |  |  |  |  | 
CC(CO)Oc1ccccc1 (configuration not stated) | 244 °C |  |  |  |  |  |  | 
CCOC(=O)C1CCC1 | 159 °C |  |  |  |  |  |  | 
Clc1cc(Cl)c(Cl)cc1Cl | 244 °C | -2.27 | 140 °C | not readily biodegradable | 4.1 | -3 | 5.63 | 
CCCCCCCCCOC(C)=O | 210 °C |  | -26 °C |  |  |  |  | 
COC(=O)C1(S(=O)(=O)c2ccc(Br)cc2)CC1 |  |  | 124 °C |  |  |  |  | 
CCOC(=O)Cc1ccccc1 | 227 °C |  | -29.4 °C |  | 1.89 |  |  | 
COC(=O)C1(S(=O)(=O)c2ccc(Cl)cc2)CC1 |  |  | 116 °C |  |  |  |  | 
Cc1ccc2c(c1)CC=C2 | 207 °C |  |  |  |  |  |  | 
CCC(C)(C#N)/N=N/C(C)(C#N)CC (configuration not stated) |  |  | 50 °C |  |  |  |  | 
CC(C)NCC(O)c1cc(O)cc(O)c1 (configuration not stated) |  |  | 100 °C |  |  |  |  | 
COc1ccccc1OC(=O)c1ccccc1 |  |  | 57.5 °C |  |  |  |  | 
CC(Cl)[N+](=O)[O-] (configuration not stated) | 124 °C |  |  |  |  |  |  | 
Clc1cc(Cl)cc(Cl)c1 | 208 °C | -0.62 | 63.5 °C | not readily biodegradable | 2.85 | -2.72 | 4.85 | 
C=CCCC(C)(C)C | 104 °C |  |  |  |  |  |  | 
CSSC | 110 °C | 1.46 | -85 °C | not readily biodegradable |  | -2.92 |  | 

Same assay, conditions: fish

Compound | log10 BCF | log10 biotransformation half-life (days)
C=CC1CC=CCC1 (configuration not stated) | 2.22 | -0.41
CC(C)C1=CC2=CC[C@@H]3[C@](C)(CCC[C@@]3(C)C(=O)O)[C@H]2CC1 | 1.97 | 
Clc1cc(Cl)c(-c2cc(Cl)c(Cl)c(Cl)c2)cc1Cl |  | 2.43
C=C(C)[C@H]1Cc2c(ccc3c2O[C@@H]2COc4cc(OC)c(OC)cc4[C@@H]2C3=O)O1 | 1.41 | -0.59
c1ccc(-c2ccccc2)cc1 | 2.64 | 
CCCCC(CC)COC(=O)c1ccccc1C(=O)OCC(CC)CCCC (configuration not stated) | 2.77 | 0.44
O=[N+]([O-])c1cc(Cl)c(Cl)cc1Cl | 1.84 | -0.64
Clc1cc(Cl)c(Cl)c(-c2cc(Cl)c(Cl)cc2Cl)c1 |  | 2.4
Cc1c(Cl)c(Cl)c(C)c(Cl)c1Cl | 3.62 | 1.12
Clc1cc(Cl)c(Cl)cc1Cl | 3.44 | 1.79
O=[N+]([O-])c1ccc(Cl)c(S(=O)(=O)[O][Na])c1 | 0.48 | 
Clc1cc(Cl)cc(Cl)c1 | 2.97 | 1.19
